Series [1] is described as follows: Half-life in 10% liver homogenate at 37 C (n = 3). Format: ADME, tissue-based.
Series [2] in a line: Distribution coefficients at 25 C in a 1-octanol-TRIS buffer. Format: physicochemical.
Series [3] in a line: Aqueous solubility of the phosphate in TRIS buffers at pH 7.4 at 37 C was determined. Format: physicochemical. The settings on record: TRIS buffer.
A short description of series [4]: Half-life in 4% cornea homogenate at 37 C (n = 3). In kind it is ADME, tissue-based.
The next series has as its system alkaline phosphatase. Briefly: Half-life in alkaline phosphatase solution at 37 C (n = 2). Format: ADME.
The nature of series [5]: Chemical stability in phosphate buffers at pH 7.4 at 37 C was determined. Format: physicochemical. The settings on record: phosphate buffer.
Series [6] in a line: Chemical stability in TRIS buffers at pH 7.4 at 37 C was determined. In kind it is physicochemical. The settings on record: TRIS buffer.

Broadly, the half-life is how long it takes for the measured level to halve. Read a low half-life as rapid decline. The logD is the decadic logarithm of the distribution of all forms, ionised or not, between an organic phase and buffer at a given pH. Usually solubility stands for how much of the substance goes into solution per volume. The low end stands for a poorly soluble substance, the high end for a readily soluble substance.

SMILES strings stand for the structures.

For the compound `CCCCC/C=C\C/C=C\C/C=C\C/C=C\CCCCOC(COP(=O)(O)O)COP(=O)(O)O`, the half-life in series [1] is 6.4 min; in series [4], 17.2 min; in the series with alkaline phosphatase, 1.6 min. Besides, the logD in series [2] was found to be 0.65. Moreover, the solubility in series [3] was > 5000 µg/mL.
Regarding `CCCCC/C=C\C/C=C\C/C=C\C/C=C\CCCCOC(CO)COP(=O)(O)O` (stereo not drawn), the half-life in series [1] was 7.1 min; in series [4], 18.1 min; in the series with alkaline phosphatase it was 4.6 min; in series [5], 17.9 days; in series [6], 216 h. In series [2], this compound had a logD of 1.98. In series [3], the solubility is > 5000 µg/mL.
For `CCCCC/C=C\C/C=C\C/C=C\C/C=C\CCCCOC(CO)CO`, the solubility in series [3] was < 0.1 µg/mL.

For the origin of these results see ChEMBL document CHEMBL1146000, “Synthesis, in vitro evaluation, and intraocular pressure effects of water-soluble prodrugs of endocannabinoid noladin ether” (J Med Chem, 2003).
